Broadly, the inhibition is the drop in the measured response relative to a control, in per cent. As usually defined, the Ki is a dissociation constant, usually derived from enzyme kinetics or from competition with a known ligand. A higher Ki goes with lower affinity.

Consider 20 molecules from patent US20130184313A1, “NICOTINIC ACETYLCHOLINE RECEPTOR LIGANDS AND THE USES THEREOF” (The Board of Trustees of the University of Illinois, priority 2009, published 2013).

The structures appear in SMILES notation. Values joined by “and” are separate entries in the source; they are usually repeats but may differ in a detail not shown here. Identical values can stand only once. Counter-ions that a name gives are not always drawn. Marks after values point to notes of the source that are not given here.

One assay relates to male Balb/cJ mice. The assay is described as follows: Forced swim test in mice. It counts as in vivo. On the procedure:
The subjects were male Balb/cJ mice obtained from Jackson Laboratory, Bar Harbor, Me. Mice were housed 4 per cage under controlled conditions of temperature, relative humidity and light-dark cycle with free access to food and water.
Mice were individually placed into clear glass cylinders (i.e., 15 cm tall×10 cm wide, 1 L beakers) containing 23±1° C. water 12 cm deep (approximately 800 mL). The time the animal spent immobile was recorded over a 6 min trial. Immobility was described as the postural position of floating in the water.
The mice were injected intraperitoneally (i.p.) 30 minutes before the start of the test. In another set of experiments, the test compounds were administered orally (p.o.) 30 minutes before the start of the test.
The length of time spent floating was analyzed by Analysis of Variance (ANOVA) with dose of drug as the between-subject factor and time spent immobile across the 6 min test as the dependent variable. Post-hoc comparisons between the treatment groups and control group were made using Fisher's PLSD test. A significance level of 5% was used throughout.

The target of assay [1] is α-Bungarotoxin-insensitive (α4β2) neuronal nicotinic receptor (Rattus norvegicus, UniProt P09483+P12390). The experiment in a line: biochemical. Particulars: read-out: percent inhibition of the control radioligand specific binding.
A further assay concerns the target T1, α4β4 nicotinic receptor (Rattus norvegicus, UniProt P09483+P12392).
T1 construct: expressed in transfected cells; host or cells: stably transfected cell lines (e.g., HEK293, COS, CHO, NIH3T3)
The format is binding.

Chain of α-Bungarotoxin-insensitive (α4β2) neuronal nicotinic receptor (P09483 31-630): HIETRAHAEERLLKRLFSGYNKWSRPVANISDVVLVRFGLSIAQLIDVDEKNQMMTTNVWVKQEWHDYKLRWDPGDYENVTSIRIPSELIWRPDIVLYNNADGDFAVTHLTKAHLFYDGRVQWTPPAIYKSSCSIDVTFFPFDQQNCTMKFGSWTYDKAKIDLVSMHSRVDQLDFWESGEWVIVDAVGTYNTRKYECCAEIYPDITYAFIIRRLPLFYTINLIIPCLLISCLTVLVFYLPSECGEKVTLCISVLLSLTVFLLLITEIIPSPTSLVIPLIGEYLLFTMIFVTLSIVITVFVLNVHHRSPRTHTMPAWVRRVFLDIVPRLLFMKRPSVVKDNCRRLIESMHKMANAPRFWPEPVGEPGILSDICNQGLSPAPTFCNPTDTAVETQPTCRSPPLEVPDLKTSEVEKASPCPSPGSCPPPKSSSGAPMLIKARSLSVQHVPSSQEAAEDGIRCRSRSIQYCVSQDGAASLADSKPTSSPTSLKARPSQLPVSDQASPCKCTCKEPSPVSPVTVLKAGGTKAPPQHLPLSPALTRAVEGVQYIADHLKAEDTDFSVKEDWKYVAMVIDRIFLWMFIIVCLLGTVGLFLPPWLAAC
Chain of α-Bungarotoxin-insensitive (α4β2) neuronal nicotinic receptor (P12390 25-500): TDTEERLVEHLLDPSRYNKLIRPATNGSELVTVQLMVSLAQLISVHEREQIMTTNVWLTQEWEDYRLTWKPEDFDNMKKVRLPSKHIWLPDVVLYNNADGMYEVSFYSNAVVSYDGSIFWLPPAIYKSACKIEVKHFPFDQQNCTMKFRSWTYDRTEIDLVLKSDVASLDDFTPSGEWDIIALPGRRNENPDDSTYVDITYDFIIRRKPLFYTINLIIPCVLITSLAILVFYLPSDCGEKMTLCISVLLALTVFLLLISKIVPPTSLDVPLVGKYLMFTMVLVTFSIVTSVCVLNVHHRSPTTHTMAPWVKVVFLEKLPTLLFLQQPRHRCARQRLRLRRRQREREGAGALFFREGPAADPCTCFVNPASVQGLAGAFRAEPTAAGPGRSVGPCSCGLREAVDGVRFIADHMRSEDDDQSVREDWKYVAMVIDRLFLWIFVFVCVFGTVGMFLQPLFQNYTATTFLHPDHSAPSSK
T1 sequence (P09483 31-630): as the sequence (P09483 31-630) above
T1 sequence (P12392 21-495): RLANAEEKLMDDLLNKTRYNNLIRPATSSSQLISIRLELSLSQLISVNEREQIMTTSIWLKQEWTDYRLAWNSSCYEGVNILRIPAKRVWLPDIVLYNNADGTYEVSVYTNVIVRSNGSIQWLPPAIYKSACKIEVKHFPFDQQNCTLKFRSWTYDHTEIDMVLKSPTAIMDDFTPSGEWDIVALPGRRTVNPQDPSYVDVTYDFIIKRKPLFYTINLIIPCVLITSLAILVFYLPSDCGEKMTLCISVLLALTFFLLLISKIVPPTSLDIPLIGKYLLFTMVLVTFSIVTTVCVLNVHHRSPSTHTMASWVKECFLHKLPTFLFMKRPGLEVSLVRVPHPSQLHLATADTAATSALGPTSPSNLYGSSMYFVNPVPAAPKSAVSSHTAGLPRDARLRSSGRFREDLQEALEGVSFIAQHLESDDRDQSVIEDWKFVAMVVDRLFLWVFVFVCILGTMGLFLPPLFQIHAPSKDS
Protocol for α4β4 nicotinic receptor: All binding assays were performed according to procedures set forth in the University of North Carolina at Chapel Hill National Institute of Mental Health Psychoactive Drug Screening Program Assay Protocol Book (pp. 50-54; PI: Bryan L. Roth MD, PhD).
Nicotinic receptors: α2β2, α2β4, α3β2, α3β4, α4β2, α4β4, endogenous α4β2. Assay buffer: 50 mM Tris-HCl, pH 7.4. Membrane fraction source: Stably transfected cell lines (e.g., HEK293, COS, CHO, NIH3T3) (α2β2, α2β4, α3β2, α3β4, α4β2, α4β4) or rat forebrain (α4β2).
Aliquots (50 μl) of radioligand were dispensed into the wells of a 96-well plate containing 100 μl of assay buffer. Then, duplicate 50-0 aliquots of the test and reference compound dilutions were added. […]
The 250-μl reactions were incubated at room temperature and shielded from light (to prevent photolysis of light-sensitive ligands) for 4 hours, then harvested by rapid filtration onto Whatman GF/B glass fiber filters pre-soaked with 0.5% polyethyleneimine using a 96-well Brandel harvester. […] The tubes were capped, labeled, and counted by liquid scintillation counting. […]

With `OCCCCC#Cc1cncc(OC[C@@H]2CCN2)c1` [AMOP—H—OH], the “effects in the forced swim test as indicated by a reduction in immobility time” value (“effects … by a reduction in immobility time” for short) in the assay with male Balb/cJ mice (mouse, in vivo, ip) is on record as “positive effects”. Besides, the “Average Immobility Time” value in the assay with male Balb/cJ mice (mouse, in vivo, ip, 0.3 mg/kg) was 116.7 s; in the assay with male Balb/cJ mice (mouse, in vivo, ip, 1 mg/kg), 20.2** seconds; with male Balb/cJ mice (mouse, in vivo, ip, 10 mg/kg) it was 5.3** seconds.
For the molecule `OCC[C@H]1C[C@@H]1c1cncc(OC[C@@H]2CCN2)c1` [Example 2, 2-[(1R,2S)-2-[5-[(2(S)-Azetidinyl)methoxy]-3-pyridyl]cyclopropyl]ethanol], the inhibition at 0.1 µM in assay [1] was in the range of 59 to 100%. For the same molecule, in the assay with male Balb/cJ mice (mouse, in vivo, ip), the “effects … by a reduction in immobility time” value is listed as “positive effects”. Also, the “Average Immobility Time” value is on record as 44** seconds in the assay with male Balb/cJ mice (mouse, in vivo, ip, 10 mg/kg) and 7** seconds in the assay on male Balb/cJ mice (mouse, in vivo, ip, 20 mg/kg).
With `c1ccc(OC[C@H]2C[C@@H]2c2cncc(OC[C@@H]3CCN3)c2)cc1` [Example 11, 3-[(2(S)-Azetidinyl)methoxy]-5-[(1S,2S)-2-(phenoxymethyl)cyclopropyl]pyridine], the inhibition at 0.1 µM in assay [1] was in the range of 59 to 100%.
With `c1cncc(OC[C@H]2C[C@@H]2c2cncc(OC[C@@H]3CCN3)c2)c1` [Example 12, 3-[(2(S)-Azetidinyl)methoxy]-5-[(1S,2S)-2-[(3-pyridyloxy)methyl]cyclopropyl]pyridine], the inhibition at 0.1 µM in assay [1] was in the range of 59 to 100%.
On the same count and under the same terms, under `c1ccc(COC[C@H]2C[C@@H]2c2cncc(OC[C@@H]3CCN3)c2)nc1` [Example 14, 3-[(2(S)-Azetidinyl)methoxy]-5-[(1S,2S)-2-[(2-pyridinylmethoxy)methyl]cyclopropyl]pyridine] stands 59 to 100%.
With `OCCCc1cccc(-c2cncc(OC[C@@H]3CCN3)c2)c1` [Example 15c, 3-[3-[5-[(2(S)-Azetidinyl)methoxy]-3-pyridyl]phenyl]-1-propanol], the inhibition at 0.1 µM in assay [1] lay in the range of 59 to 100%. Further, in the assay with male Balb/cJ mice (mouse, in vivo), the “change in immobility time compared to the vehicle” value is given as “did not show any change”. Besides, in the assay on male Balb/cJ mice (mouse, in vivo), the “reduction in immobility time compared to vehicle” value is 24.5 s. The “effects … by a reduction in immobility time” value in the assay on male Balb/cJ mice (mouse, in vivo, ip) was “positive effects”. Moreover, the “Average Immobility Time” value in the assay with male Balb/cJ mice (mouse, in vivo, ip, 5 mg/kg) is 110.6 s; with male Balb/cJ mice (mouse, in vivo, ip, 10 mg/kg) it was 105.1** seconds and 85.3** seconds; in the assay with male Balb/cJ mice (mouse, in vivo, ip, 20 mg/kg) it was 49.7** seconds.
Take `OCCCc1ccc(-c2cncc(OC[C@@H]3CCN3)c2)cc1` [Example 15d]: the inhibition at 0.1 µM in assay [1] lay in the range of 59 to 100%.
Same read-out and setting: under `OCCCc1cccc(-c2cncc(OC[C@H]3CCN3)c2)c1` [Example 19, 3-[3-[5-[(2(R)-Azetidinyl)methoxy]-3-pyridyl]phenyl]-1-propanol] stands 59 to 100%; under `CC(=O)NCCCc1cccc(-c2cncc(OC[C@@H]3CCN3)c2)c1` [Example 22, N-(3-[3-[5-[(2(S)-Azetidinyl)methoxy]-3-pyridyl]phenyl]propyl]acetamide], 59 to 100%.
Turning to `OCCc1cccc(-c2cncc(OC[C@@H]3CCN3)c2)c1` [Example 24, 2-[3-[5-[(2(S)-Azetidinyl)methoxy]-3-pyridyl]phenyl]ethanol], the inhibition at 0.1 µM in assay [1] lay within 59 to 100%.
With `c1ccc(COCCc2cccc(-c3cncc(OC[C@@H]4CCN4)c3)c2)cc1` [Example 27, 3-[((2S)-Azetidinyl)methoxy]-5-[3-[2-(benzyloxy)ethyl]phenyl]pyridine], in assay [1], the inhibition at 0.1 µM lay in the range of 59 to 100%.
As for `OCc1cc(-c2cncc(OC[C@@H]3CCN3)c2)on1` [Example 37, 5-[5-(2(S)-Azetidinylmethoxy)-3-pyridyl]-3-isoxazolylmethanol], the inhibition at 0.1 µM in assay [1] is 59 to 100%.
The same measure, in the same setting: under `CN1CCC[C@H]1COc1cncc(-c2cc(CCCOc3ccccc3)no2)c1` [Example 41, 3-[(1-Methyl-2(S)-pyrrolidinyl)methoxy]-5-[3-(3-phenoxypropyl)-5-isoxazolyl]pyridine Hydrochloride] stands 59 to 100%.
For the molecule `c1ncc(N2CC3CC3C2)cc1OC[C@@H]1CCN1` (stereo partly drawn) [Example 46, 3-[5-[(2(S)-Azetidinyl)methoxy]-3-pyridyl]-3-azabicyclo[3.1.0]hexane], in assay [1], the inhibition at 0.1 µM was 59 to 100%.
On the same count and under the same terms, the same measure for `c1ccc(COCCC2CCN(c3cncc(OC[C@@H]4CCCN4)c3)CC2)cc1` [Example 51, 3-[4-[2-(Benzyloxy)ethyl]-1-piperidinyl]-5-[(2(S)-pyrrolidinyl)methoxy]pyridine]: 59 to 100%; for `c1ccc(OCCC2CCN(c3cncc(OC[C@@H]4CCCN4)c3)CC2)cc1` [Example 58, 3-[4-(2-Phenoxyethyl)-1-piperidinyl]-5-[(2(S)-pyrrolidinyl)methoxy]pyridine]: 8 to 28%; for `c1ccc(COCCC2CCN(c3cncc(OC[C@H]4CCCN4)c3)CC2)cc1` [Example 62, 3-[4-[2-(Benzyloxy)ethyl]-1-piperidinyl]-5-[(2(R)-pyrrolidinyl)methoxy]pyridine]: 8 to 28%.
Same read-out and setting: the same measure for `Oc1ccc(OCCC2CCN(c3cncc(OC[C@@H]4CCCN4)c3)CC2)cc1` [Example 70, 4-[2-[1-[5-[(2(S)-Pyrrolidinyl)methoxy]-3-pyridyl]-4-piperidinyl]ethoxy]phenol]: 8 to 28%.
Consider `CN[C@H]1CC[C@@H](c2ccc(Cl)c(Cl)c2)c2ccccc21` [Sertraline, sertraline, reference compound], for which the “Average Immobility Time” value is given as 11.99** seconds with male Balb/cJ mice (Table 2, 20 mg/kg i.p., 30 min before test, 6 min trial, vehicle 126.3); 23.7** seconds in the assay with male Balb/cJ mice (Table 4, 10 mg/kg i.p., 30 min before test, 6 min trial, vehicle 115.2); 47.8** seconds in the assay on male Balb/cJ mice (Table 5, 10 mg/kg i.p., 30 min before test, 6 min trial, vehicle 104.9).
Take `OCC[C@H]1C[C@@H]1c1cncc(OC[C@@H]2CCN2)c1` [drawing 418]: the affinity on α4β4 nicotinic receptor, expressed as Ki, was 83 nM.
